Experimental data taken from US20060206946A1, “Method of disrupting heme transport in nematodes and of modelling and evaluating eukaryotic heme transport” (priority 2005, published 2006).

How the values were obtained:
[1] = tested on: C. elegans; format: in vivo, Caenorhabditis elegans; conditions: pulse 40 μM ZnMP 3 h
Method: (C) Fluorescent metabolic labeling of worms with either 40 μM hemin (images 1, 4) or 40 μM ZnMP/4 μM hemin (images 2, 3, 5, 6) for 3 h followed by confocal microscopy with a 546 laser (images 1-3) and DIC optics (images 4-6). Arrowheads indicate ZnMP fluorescence accumulation within intestinal cells and developing embryos. For clarity, the boxed image in 2 is magnified in images 3 and 6. (Bar=100 μm).
(D) Worms were incubated with 40 μM ZnMP/4 μM hemin for 16 h followed by a chase with 40 μM hemin. Worms were analyzed by epifluorescence microscopy (TRITC channel) and DIC optics. Experiments were performed either in the absence (images 1-4) or presence (images 5-8) of NaN3 during the chase periods to test for the non-specific loss of ZnMP fluorescence. Photomicrograph 4 is shown at a lower power to depict the complete loss of ZnMP fluorescence. (Bar=100 μm). For (C) and (D), four separate experiments were performed with a minimum of 50 worms per data point per experiment. The data are representative for >90% of worms analyzed.
Because of the nature of the growth curve, we reasoned that heme homeostatis in C. elegans may be regulated in accordance with organismic needs and metabolic demands. […]
Pulse-Chase Analysis. […] At timed intervals, aliquots of worms were removed into the appropriate medium containing 10 mM NaN3 mounted on a slide and immediately analyzed with a 543 He/Ne laser on a Zeiss 410 confocal microscope, or with a Peltier-cooled Retiga 1300 12-bit CCD camera fitted on to a Leica DMIRE2 autofluorescence/DIC microscope. Images were further analyzed with SIMPLEPCI v5.2 Software (Compix, Inc.). […] No loss of fluorescence was observed when labeling experiments were performed in parallel in the presence of 1 mM NaN3 during the chase period and when worms were incubated in medium without hemin. To account for background autouluorescence in C. elegans, the sensor gain of the CCD camera or the laser was set to subtract any fluorescence obtained from control worms incubated in the presence of 40 μM hemin.

[2] = tested on: C. elegans mutant IH718; test: Growth of heme resistant mutant in CeHR medium; format: in vivo, Caenorhabditis elegans; set-up: key: + = wild type equivalent In growth; ND: No growth
Method: To further increase the stringency of our genetic screen we split the contents from each 800 μM hemin selection flasks into two flasks containing either 800 μM or 1000 μM hemin. This allowed us to use another tier of positive selection to identify mutants with greater resistance to heme toxicity. Mutants from each flask were isolated and treated as a separate entity by giving an identification number based on the Genetic Nomenclature Guidelines used for C. elegans (http://biosci.umn.edu/CGC/Nomenclature/nomenguid.htm). To eliminate EMS-induced spurious mutations that could result in false positive, the mutants were outcrossed to wild-type N2 males. After five outcrosses, which replaces ˜97% of the mutant genome, mutants that bred true were selected for further analysis. Using this procedure, we isolated 13 individual mutants that were resistant to heme toxicity. […]
Worm Culture and Growth Assays. […] Worm growth was monitored each day and an aliquot was obtained for counting by microscopy usually at days 3, 6, and 9. The worms in each well were counted twice and each growth condition was analyzed in triplicate. P values for statistical significance were calculated utilizing a one-way ANOVA with Student-Newman-Keuls multiple comparison test using GraphPad Instat version 3.01. […]

hemin chloride
hemin concentration of growth medium giving dramatic decline in ZnMP fluorescence [1]: ≥ 100 µM | hemin concentration of growth medium giving robust uptake of fluorescent ZnMP [1]: ≤ 20 µM | Growth 1.6 μM hemin [2]: +
